Active and inactive are the calls of the source. The rule behind the calls is not given here.
Assays:
Mus musculus [1] = assay: Toxicity in BALB/c mouse assessed as change in body weight at 5 mg/kg, ip bid for 14 days; assay type: organism-based; set-up: dose 5 mg/kg, route intraperitoneal; details: in vivo, 336 h
[2] = test system: Human immunodeficiency virus 1; assay: Antiviral activity against HIV1 JR-FL infected in human PBMC transplanted NOD/SCID/Janus kinase 3 knockout mouse assessed as decrease of viral p24 antigen level in plasma at 0.5 mg/kg, ip bid for 15 days by ELISA; assay type: functional; details: route intraperitoneal
[3] = Drug level in BALB/c mouse blood at 20 mg/kg, ip; assay type: ADME, organism-based; set-up: dose 20 mg/kg, route intraperitoneal; details: read-out: Drug uptake
[4] = test system: Human immunodeficiency virus 1; assay: Antiviral activity against HIV1 JR-FL infected in human PBMC transplanted NOD/SCID/Janus kinase 3 knockout mouse assessed as decrease of p24 expressing human CD4+ cells in PBMC at 0.5 mg/kg, ip bid for 15 days by flow cytometry; assay type: functional, organism-based; set-up: dose 0.5 mg/kg
[5] = test system: Human immunodeficiency virus 1; assay: Antiviral activity against HIV1 JR-FL infected in human PBMC transplanted NOD/SCID/Janus kinase 3 knockout mouse assessed as decrease of viremia in plasma at 0.5 mg/kg, ip bid for 15 days by ELISA; assay type: functional, organism-based; set-up: dose 0.5 mg/kg
[6] = Tmax in BALB/c mouse at 20 mg/kg, ip; assay type: ADME, organism-based; set-up: dose 20 mg/kg, route intraperitoneal; details: in vivo
Mus musculus [7] = assay: Toxicity in BALB/c mouse assessed as acute whole-body effect at 50 mg/kg, ip bid for 14 days; assay type: organism-based; set-up: dose 50 mg/kg, route intraperitoneal; details: in vivo, 336 h
[8] = test system: Human immunodeficiency virus 1; assay: Antiviral activity against HIV1 JR-FL infected in human PBMC transplanted NOD/SCID/Janus kinase 3 knockout mouse assessed as increase of CD4/CD8 ratio in PBMC at 0.5 mg/kg, ip bid for 15 days by flow cytometry; assay type: functional; details: route intraperitoneal
Mus musculus [9] = assay: Toxicity in BALB/c mouse assessed as acute whole-body effect at 5 mg/kg, ip bid for 14 days; assay type: organism-based; set-up: dose 5 mg/kg, route intraperitoneal; details: in vivo, 336 h
Mus musculus [10] = assay: Toxicity in BALB/c mouse assessed as ruffled fur at 50 mg/kg, ip bid for 14 days; assay type: organism-based; set-up: dose 50 mg/kg, route intraperitoneal; details: in vivo, 336 h
Mus musculus [11] = assay: Toxicity in BALB/c mouse assessed as change in body weight at 50 mg/kg, ip bid for 14 days; assay type: organism-based; set-up: dose 50 mg/kg, route intraperitoneal; details: in vivo, 336 h
Mus musculus [12] = assay: Toxicity in BALB/c mouse assessed as subacute whole-body effect at 5 mg/kg, ip bid for 14 days; assay type: organism-based; set-up: dose 5 mg/kg, route intraperitoneal; details: in vivo, 336 h
[13] = test system: Human immunodeficiency virus 1; assay: Antiviral activity against HIV1 JR-FL infected in human PBMC transplanted NOD/SCID/Janus kinase 3 knockout mouse assessed as decrease of p24 expressing human CD4+ cells in peritoneal cavity cells at 0.5 mg/kg, ip bid for 15 days by flow cytometry; assay type: functional, organism-based; set-up: dose 0.5 mg/kg
Mus musculus [14] = assay: Toxicity in HIV1 JR-FL infected human PBMC transplanted NOD/SCID/Janus kinase 3 knockout mouse assessed as adverse effect at 0.5 mg/kg, ip bid for 15 days; assay type: organism-based; set-up: dose 0.5 mg/kg, route intraperitoneal; details: in vivo, 360 h
Mus musculus [15] = assay: Toxicity in BALB/c mouse assessed as subacute whole-body effect at 50 mg/kg, ip bid for 14 days; assay type: organism-based; set-up: dose 50 mg/kg, route intraperitoneal; details: in vivo, 336 h
[16] = test system: Human immunodeficiency virus 1; assay: Antiviral activity against HIV1 JR-FL infected in human PBMC transplanted NOD/SCID/Janus kinase 3 knockout mouse assessed as increase of CD4/CD8 ratio in spleen at 0.5 mg/kg, ip bid for 15 days by flow cytometry; assay type: functional, organism-based; set-up: dose 0.5 mg/kg
[17] = test system: Human immunodeficiency virus 1; assay: Antiviral activity against HIV1 JR-FL infected in human PBMC transplanted NOD/SCID/Janus kinase 3 knockout mouse assessed as decrease of p24 expressing human CD3+ cells in spleen cells at 0.5 mg/kg, ip bid for 15 days by flow cytometry; assay type: functional; set-up: scale not given: the % may be the effect or the level left; details: route intraperitoneal
[18] = test system: Human immunodeficiency virus 1; assay: Antiviral activity against HIV1 JR-FL infected in human PBMC transplanted NOD/SCID/Janus kinase 3 knockout mouse assessed as increase of CD4/CD8 ratio in peritoneal cavity at 0.5 mg/kg, ip bid for 15 days by flow cytometry; assay type: functional, organism-based; set-up: dose 0.5 mg/kg

Which Activity (Mus musculus [1]) does the source give for `C#C[C@]1(CO)O[C@@H](n2cnc3c(N)nc(F)nc32)C[C@@H]1O` [ISLATRAVIR] here?
Its Activity is “Non-toxic”.

And the Activity [2]?
Its Activity is 2.1 ×10² pg/ml.

And the AUC [3]?
The AUC was 4990 ng·h/mL.

What about the Activity [4] of the same compound?
The Activity was “Active”.

What about the Activity [5] of the same compound?
Its Activity is “Active”.

What about the Tmax [6] of the same compound?
Its Tmax is 10 min.

What about the Activity (Mus musculus [7]) of the same compound?
Its Activity is “Non-toxic”.

And the Ratio [8]?
Its Ratio is 0.65.

What about the Activity (Mus musculus [9]) of the same compound?
Its Activity is “Non-toxic”.

And the Activity (Mus musculus [10])?
Its Activity is “Non-toxic”.

What about the Activity (Mus musculus [11]) of the same compound?
The Activity was “Non-toxic”.

And the Activity (Mus musculus [12])?
Its Activity is “Non-toxic”.

What about the Activity [13] of the same compound?
Its Activity is “Active”.

What about the Activity (Mus musculus [14]) of the same compound?
Its Activity is “Non-toxic”.

What about the Activity (Mus musculus [15]) of the same compound?
The Activity was “Non-toxic”.

What about the Activity [16] of the same compound?
The Activity was “Active”.

And the Activity [17]?
The Activity was 0.11%.

What about the Activity [18] of the same compound?
Its Activity is “Active”.

Reference: ChEMBL document CHEMBL1687737, “Potent activity of a nucleoside reverse transcriptase inhibitor, 4'-ethynyl-2-fluoro-2'-deoxyadenosine, against human immunodeficiency virus type 1 infection in a model using human peripheral blood mononuclear cell-transplanted NOD/SCID Janus kinase 3 knockout mice” (Antimicrob Agents Chemother, 2009)
